Laboratory results as given in paper PMC6152234, “Specialized Metabolites of the Lichen Vulpicida pinastri Act as Photoprotective Agents” (Molecules : A Journal of Synthetic Chemistry and Natural …, 2017).

Assays:
[1] = NBT assay (superoxide anion scavenging, non-enzymatic NADH/PMS); type: biochemical
Method: Measurements of superoxide anion scavenging activity in 96-well microplates was based on the non-enzymatic method previously described with some modifications. The reaction mixture in the sample wells consisted of NADH (78 µM), nitro-blue tetrazolium (NBT) (50 µM), phenazine methosulfate (PMS) (10 µM), and lichen compounds (10, 20, 40, 80 µg/mL). The reagents were dissolved in 16 mM tris-hydrochloride buffer, at pH = 8 except for all the lichen compounds/extract which were dissolved in DMSO. After 5 min of incubation at room temperature, the spectrophotometric measurement was performed at 560 nm against blanks (without PMS nor sample).
(§1) For both assays, each concentration and all tests were done in triplicate and the results averaged. Ascorbic acid was used as a positive control. The percentage inhibition at steady state for each dilution was used to calculate the IC50 values. This gave the amount of antioxidant required (measured as the concentration of the stock solution added to the reaction mixture) to either scavenge 50% of O2^− or 50% of DPPH radicals: the lower the values, the higher the scavenging activity towards O2^−.

HaCaT cells = experiment: Cytotoxic and photocytotoxic activities before and after UVA irradiation; type: cell-based, human
Method: Briefly, 100 µL per well of a cell suspension of HaCaT cells (ATCC) at 120,000 cells/mL were maintained in a RPMI culture medium with 5% of calf serum at 37 °C under 5% CO2 for 24 h for formation of monolayers. At t = 24 h, two 96-well plates per test chemical were preincubated for 1 h with seven different concentrations of the tested compounds and extract (ranging from 1 µg/mL to 200 µg/mL). Chlorpromazine was used as the positive control. To allow results comparison and due to the presence of extract, concentrations are expressed in µg/mL.
For both assays, each concentration and all tests were done in triplicate and the results averaged. The percentage inhibition at steady state for each dilution was used to calculate the IC50 values.

[2] = In vitro screening method for sun protection indexes (SPF, PF-UVA, λc, ISP, SUI) from UV absorbance 290–400 nm; type: physicochemical; conditions: before irradiation
Method: Photoprotective effectiveness is evaluated through photoprotective indexes such as SPF, PF-UVA, and critical wavelength (λc) (an indicator of the filter capacity to protect in the UVA range), as well as Spectral Uniformity Index (SUI) and Ideal Spectral Profile (ISP), two indexes recently defined by Diffey to focus on protection across the entire ultraviolet spectrum. They calculate the goodness of fit of the spectral profile to the ideal flat profile. SPF and PF-UVA measure the filter efficacy against UVB or UVA. SPF measurement is currently determined in vivo through determination of the erythemal reaction on human volunteers. For economical and ethical reasons, many alternative in vitro methods have been developed to measure SPF and also PF-UVA, λc or SUI and ISP. Unfortunately, despite concerted efforts around the globe between different commissions, none of them guarantees a good correlation with in vivo measurements. Moreover, all these in vitro methods require an amount of active raw material generally ≥100 mg and prevent the evaluation of compounds in minute amounts. The photoprotective indexes have been then determined thanks to a new method (see SM) especially developed to cope with the low availability of the compounds. Twelve commercial organic UV-filters, the photoprotective indexes of which were published (Table S3 in SM), encompassing a 1–24 SPF range were used for the development. It can be noted that the SPF values of benzophenone-3 (oxybenzone), PEG-25 PABA, homosalate, polysilicone 15 and 4-Methylbenzylidene Camphor are under 6, the value commonly accepted as the lower limit for commercial sunscreen. However, the efficient value of commercialized emulsion can be explained by the formulation of several organic and mineral filters. The similarity of the results (r^2 = 0.98 for published SPF vs. herein SPF, see Figure S1 in SM) supported the new method validity. Routinely, ethylhexyl methoxycinnamate (OMC) was used as positive control. Based on the SPF, λc, PF-UVA, SUI and ISP values obtained with marketed organic filters and on their UV range protection (Table S3 in SM), a decision tree was built to categorize the filters (Figure 3). Considering the herein SPF values of the filters cited above (around 2), the first condition to select a candidate is SPF > 2. Restricted UVA or UVB filters can be discriminated through the λc value (>370 nm) and PF-UVA (>2) for UVA and SUI (>1.2) and ISP (<90) for UVB. A large spectral protection (UVA + UVB) could be evaluated by combining the four criteria.
A new in vitro screening method based on spectrophotometric data was used to evaluate sun protection indexes such as SPF, PF-UVA, the critical wavelength λc, ISP and SUI. Its development was first conducted in a cuvette using twelve commercial organic filters encompassing a large range of SPF values (1 < SPF < 25) and then transposed in a 96-wells plate. Following the International recommendations, maximal concentrations never overtook 10% whatever the commercial filters or the lichens extracts or compounds considered. This new method faces some product availability limitation, which is a common shortcoming for natural products or metabolites (see all development in SM).
The scheme of solution preparation to record the experimental values is depicted in Figure 9. The sample (S4) was prepared at 0.02 mg/mL from stock solutions of filter candidate (S2) and of emulsion (S1) (See emulsion preparation in SM) taking into account the maximal concentration. The experimental absorbances Aλ were recorded in the 290–400 nm range versus a blank solution (S3) in a cuvette with a double beam spectrophotometer or in a 96-wells plate filled with 180 µL of solution by well. […] The diagram is described for final volumes of 50 mL, 100 µL, 25 mL and 25 mL for S1, S2, S3 and S4 solutions, respectively. Smaller volumes can easily be prepared. Solutions S2 and S4 were prepared in duplicate. […]

[3] = DPPH assay (reducing activity); type: biochemical
Method: Reducing activity of compounds 1–3 and crude extract on the 1,1′-diphenyl-2-picrylhydrazyl free radical (DPPH) and scavenging activity on superoxide anion were measured as previously described. Briefly, the scavenging activity of the lichen compounds on DPPH was measured using the Matsukawa method with some modifications. A reaction mixture containing 100 µL of DPPH (0.5 mM) in methanol and 10 µL of the lichen compound solutions in DMSO to give final concentrations of 19, 56, 167 and 500 µg/mL per well, was distributed in each microplate well. To allow results comparison and due to the presence of extract, concentrations are expressed in µg/mL. The absorbances were recorded at 540 nm after 30 min.
as §1

[4] = set-up: method as in earlier work; conditions: ref 37 (Rancan); cited from earlier work
[5] = NBT antioxidant assay of compounds in combination (isobologram, combination index); type: biochemical
Method: For each drug ratio (Tables S5 and S6 in SM), the antioxidant inhibition was evaluated as previously described (2.6.1).
The antagonistic, synergistic or additive effect of the combination depends on the combination index value (CI) (Equation (1)). […] (IC50)X is the value of the IC50 of compound X alone.
For both assays, each concentration and all tests were done in triplicate and the results averaged.

[6] = Stability of photoprotection indexes after UVA or UVB irradiation; type: physicochemical
Method: One hundred eighty microliters of solution in 96-well plates were irradiated by UVA (2 J/cm^2) or UVB ([…]). The absorbances were then recorded and photoprotective indexes were calculated as described above. The stability was evaluated by comparison between indexes described previously (Section 3.5.1) and obtained before and after irradiation. Two independently prepared solutions were studied and OMC was used as a positive control.

For usnic acid, which “NBT Assay IC50 ± SD” value [1] is on record?
Its value is 24.0 ± 9 µg/mL.

What about the “IC50 ± SD With Irradiation” value (HaCaT cells; HaCaT cells, with UVA irradiation) of the same substance?
Its value is 47.0 ± 10.0 µg/mL.

And the “IC50 ± SD Without Irradiation” value (HaCaT cells; HaCaT cells, without irradiation)?
The value was 33.0 ± 2.0 µg/mL.

And the phototoxic potential (HaCaT cells; from PIF, human keratinocyte cell line, UVA)?
Its phototoxic potential is “no phototoxic potential”.

And the “ISP (Ideal Spectral Profile)” value [2]?
The value was 53%.

And the PF-UVA [2]?
The PF-UVA was 1.8.

And the “critical wavelength (λc)” value [2]?
The value was 364 nm.

What about the SPF ([2]; new in vitro method) of the same substance?
Its SPF is 3.9.

What about the “DPPH Assay IC50 ± SD” value [3] of the same substance?
The value was >500.0 µg/mL.

And the “in vivo SPF” value [4]?
The value was 4.1.

And the “Superoxide anion scavenging activity (% inhibition)” value ([5]; Table S6, usnic acid alone 6.0 µg/mL)?
Its value is 32.0%.

And the “Superoxide anion scavenging activity (% inhibition)” value ([5]; Table S6, usnic acid alone 12.0 µg/mL)?
The value was 40.0%.

What about the “Superoxide anion scavenging activity (% inhibition)” value ([5]; Table S6, usnic acid alone 18.0 µg/mL) of the same substance?
The value was 46.0%.

And the “Superoxide anion scavenging activity (% inhibition)” value ([5]; Table S6, usnic acid alone 24.0 µg/mL)?
Its value is 50.0%.

And the “Superoxide anion scavenging activity (% inhibition)” value ([5]; Table S7, usnic acid alone 6.0 µg/mL)?
The value was 32.0%.

And the “Superoxide anion scavenging activity (% inhibition)” value ([5]; Table S7, usnic acid alone 12.0 µg/mL)?
The value was 40.0%.

What about the “Superoxide anion scavenging activity (% inhibition)” value ([5]; Table S7, usnic acid alone 18.0 µg/mL) of the same substance?
The value was 46.0%.

What about the “Superoxide anion scavenging activity (% inhibition)” value ([5]; Table S7, usnic acid alone 24.0 µg/mL) of the same substance?
Its value is 50.0%.

And the “variation in the SPF values after UVA irradiation” value ([6]; UVA 2 J/cm^2)?
The value was “+17%”.

What about the photostability ([6]; UVA and UVB) of the same substance?
The photostability was “photostable in the UVA and UVB ranges”.
